{"source": "patent US12617803B2", "about": "“Condensed isoxazoline derivatives and their use as herbicides” (BASF SE, priority 2020, dated 2026)", "format_in_all_cases": "in vivo", "key": {"[1]": {"system": "APESV (Apera spica-venti)", "assay": "greenhouse pre-emergence herbicidal test", "conditions": "scale from 0 to 100, read-out: herbicidal activity against APESV; for pest or weed control at 125 g/ha: pre-emergence, 0.125 kg/ha; for pest or weed control at 250 g/ha: pre-emergence, 0,250 kg/ha", "text": "(§1) The seeds of the test plants were sown separately for each species. For the pre-emergence treatment, the active ingredients, which had been suspended or emulsified in water, were applied directly after sowing by means of finely distributing nozzles. The containers were irrigated gently to promote germination and growth and subsequently covered with transparent plastic hoods until the test plants had rooted. This cover caused uniform germination of the test plants, unless this had been impaired by the active ingredients. For the post-emergence treatment, the test plants were first grown to a height of 3 to 15 cm, depending on the plant habit, and only then treated with the active ingredients which had been suspended or emulsified in water. For this purpose, the test plants were either sown directly and grown in the same containers, or they were first grown separately as seedlings and transplanted into the test containers a few days prior to treatment. Depending on the species, the test plants were kept at 10-25° C. or 20-35° C., respectively. The test period extended over 2 to 4 weeks. During this time, the test plants were tended, and their response to the individual treatments was evaluated. Evaluation was carried out using a scale from 0 to 100. 100 means no emergence of the test plants, or complete destruction of at least the aerial moieties, and 0 means no damage, or normal course of growth. A good herbicidal activity is given at values of 70 to 90 and a very good herbicidal activity is given at values of 90 to 100. The test plants used in the greenhouse experiments were of the following species: [table]"}, "[2]": {"system": "AMARE (Amaranthus retroflexus)", "assay": "greenhouse pre-emergence herbicidal test", "conditions": "0.125 kg/ha, scale from 0 to 100", "text": "as §1"}, "AVEFA (Avena fatua)": {"system": "AVEFA (Avena fatua)", "assay": "greenhouse post-emergence herbicidal test", "conditions": "scale from 0 to 100, read-out: herbicidal activity against AVEFA; for pest or weed control at 125 g/ha: 0.125 kg/ha; for pest or weed control at 250 g/ha: 0.250 kg/ha; for pest or weed control at 630 g/ha: 0.63 kg/ha", "text": "as §1"}, "[3]": {"system": "AMARE (Amaranthus retroflexus)", "assay": "greenhouse post-emergence herbicidal test", "conditions": "scale from 0 to 100", "text": "as §1"}, "[4]": {"system": "ALOMY (Alopercurus myosuroides)", "assay": "greenhouse post-emergence herbicidal test", "conditions": "0.125 kg/ha, scale from 0 to 100", "text": "as §1"}, "SETFA (Setaria faberi)": {"system": "SETFA (Setaria faberi)", "assay": "greenhouse pre-emergence herbicidal test", "conditions": "scale from 0 to 100", "text": "as §1"}, "[5]": {"system": "ECHCG (Echinocloa crus-galli)", "assay": "greenhouse pre-emergence herbicidal test", "conditions": "pre-emergence, 0,250 kg/ha, scale from 0 to 100", "text": "as §1"}, "SETVI (Setaria viridis)": {"system": "SETVI (Setaria viridis)", "assay": "greenhouse post-emergence herbicidal test", "conditions": "scale from 0 to 100", "text": "as §1"}, "[6]": {"system": "ABUTH (Abutilon theophrasti)", "assay": "greenhouse post-emergence herbicidal test", "conditions": "0.500 kg/ha, scale from 0 to 100", "text": "as §1"}, "[7]": {"system": "ECHCG (Echinocloa crus-galli)", "assay": "greenhouse post-emergence herbicidal test", "conditions": "0.63 kg/ha, scale from 0 to 100", "text": "as §1"}, "[8]": {"system": "POLCO (Fallopia convolvulus)", "assay": "greenhouse post-emergence herbicidal test", "conditions": "0.63 kg/ha, scale from 0 to 100", "text": "as §1"}}, "data": [{"compound": "COC(=O)[C@@H]1C=C[C@H](NC(=O)C23CCCC2C(c2cc(Cl)cc(Cl)c2)=NO3)C1", "note": "(some centres unmarked) [I1]", "values": [{"measurement": "pest or weed control at 125 g/ha", "setting": "[1]", "result": "90 to 100", "unit": "%"}, {"measurement": "herbicidal activity against AMARE", "setting": "[2]", "result": "very good (a very good herbicidal activity is given at values of 90 to 100)"}, {"measurement": "pest or weed control at 125 g/ha", "setting": "AVEFA (Avena fatua)", "result": "70 to 90", "unit": "%"}, {"measurement": "herbicidal activity against AMARE", "setting": "[3]; 0.125 kg/ha", "result": "very good (a very good herbicidal activity is given at values of 90 to 100)"}, {"measurement": "herbicidal activity against ALOMY", "setting": "[4]", "result": "good (A good herbicidal activity is given at values of 70 to 90)"}]}, {"compound": "COC(=O)CC[C@H](C)NC(=O)C12CCCC1C(c1cc(Cl)cc(Cl)c1)=NO2", "note": "(some centres unmarked) [I2]", "values": [{"measurement": "pest or weed control at 125 g/ha", "setting": "[1]", "result": "70 to 90", "unit": "%"}, {"measurement": "pest or weed control at 125 g/ha", "setting": "AVEFA (Avena fatua)", "result": "90 to 100", "unit": "%"}, {"measurement": "herbicidal activity against AMARE", "setting": "[3]; 0.125 kg/ha", "result": "good (A good herbicidal activity is given at values of 70 to 90)"}, {"measurement": "herbicidal activity against ALOMY", "setting": "[4]", "result": "very good (a very good herbicidal activity is given at values of 90 to 100)"}]}, {"compound": "COC(=O)[C@@H]1C=C[C@H](NC(=O)C23NCCC2C(c2cc(Cl)cc(Cl)c2)=NO3)C1", "note": "(stereo partly drawn) [I10, methyl (1S,4R)-4-[3-(3,5-dichlorophenyl)-3aH,4H,5H,6H-pyrrolo[3,2-d][1,2]oxazole-6a-amido]cyclopent-2-ene-1-carboxylate]", "values": [{"measurement": "pest or weed control at 250 g/ha", "setting": "[1]", "result": "70 to 90", "unit": "%"}, {"measurement": "pest or weed control at 250 g/ha", "setting": "AVEFA (Avena fatua)", "result": "90 to 100", "unit": "%"}]}, {"compound": "COC(=O)[C@@H]1C=C[C@H](NC(=O)C23ON=C(c4cc(Cl)cc(Cl)c4)C2CCC3(C)C)C1", "note": "(some centres unmarked) [I12]", "values": [{"measurement": "herbicidal activity against SEFTA", "setting": "SETFA (Setaria faberi); pre-emergence, 0.125 kg/ha", "result": "good (A good herbicidal activity is given at values of 70 to 90)"}]}, {"compound": "COC(=O)[C@@H]1C=C[C@H](NC(=O)C23ON=C(c4cc(Cl)cc(Cl)c4)C2CCS3)C1", "note": "(stereo partly drawn) [I13, methyl (1S,4R)-4-[[3-(3,5-dichlorophenyl)-4,5-dihydro-3aH-thieno[3,2-d]isoxazole-6a-carbonyl]amino]cyclopent-2-ene-1-carboxylate]", "values": [{"measurement": "herbicidal activity against ECHCG", "setting": "[5]", "result": "very good (a very good herbicidal activity is given at values of 90 to 100)"}, {"measurement": "pest or weed control at 250 g/ha", "setting": "[1]", "result": "90 to 100", "unit": "%"}, {"measurement": "pest or weed control at 250 g/ha", "setting": "AVEFA (Avena fatua)", "result": "90 to 100", "unit": "%"}]}, {"compound": "COC(=O)CC[C@H](C)NC(=O)C12ON=C(c3cc(F)cc(F)c3)C1CCS2", "note": "(some centres unmarked) [I15]", "values": [{"measurement": "pest or weed control at 500 g/ha", "setting": "[1]; pre-emergence, 0,500 kg/ha", "result": "70 to 90", "unit": "%"}, {"measurement": "herbicidal activity against SETVI", "setting": "SETVI (Setaria viridis); 0.500 kg/ha", "result": "very good (a very good herbicidal activity is given at values of 90 to 100)"}, {"measurement": "herbicidal activity against ABUTH", "setting": "[6]", "result": "good (A good herbicidal activity is given at values of 70 to 90)"}, {"measurement": "pest or weed control at 500 g/ha", "setting": "AVEFA (Avena fatua); 0.500 kg/ha", "result": "90 to 100", "unit": "%"}]}, {"compound": "COC(=O)CC[C@H](C)NC(=O)C12CC1C(c1cc(F)cc(F)c1)=NO2", "note": "(stereo partly drawn) [I16, methyl (4S)-4-[[4-(3,5-difluorophenyl)-2-oxa-3-azabicyclo[3.1.0]hex-3-ene-1-carbonyl]amino]pentanoate]", "values": [{"measurement": "pest or weed control at 250 g/ha", "setting": "[1]", "result": "70 to 90", "unit": "%"}, {"measurement": "pest or weed control at 250 g/ha", "setting": "AVEFA (Avena fatua)", "result": "90 to 100", "unit": "%"}]}, {"compound": "COC(=O)C1C=C[C@H](NC(=O)C23CC2C(c2cc(Cl)cc(Cl)c2)=NO3)C1", "note": "(some centres unmarked) [I17]", "values": [{"measurement": "pest or weed control at 250 g/ha", "setting": "[1]", "result": "90 to 100", "unit": "%"}, {"measurement": "pest or weed control at 250 g/ha", "setting": "AVEFA (Avena fatua)", "result": "90 to 100", "unit": "%"}]}, {"compound": "COC(=O)[C@@H]1C=C[C@H](NC(=O)C23C=CCC2C(c2cc(F)cc(F)c2)=NO3)C1", "note": "(stereo partly drawn) [I19, methyl (1S,4R)-4-[[3-(3,5-difluorophenyl)-3a,4-dihydrocyclopenta[d]isoxazole-6a-carbonyl]amino]cyclopent-2-ene-1-carboxylate]", "values": [{"measurement": "herbicidal activity against SETFA", "setting": "SETFA (Setaria faberi); pre-emergence, 0,250 kg/ha", "result": "very good (a very good herbicidal activity is given at values of 90 to 100)"}, {"measurement": "pest or weed control at 250 g/ha", "setting": "[1]", "result": "90 to 100", "unit": "%"}, {"measurement": "pest or weed control at 250 g/ha", "setting": "AVEFA (Avena fatua)", "result": "90 to 100", "unit": "%"}]}, {"compound": "COC(=O)[C@H]1C[C@@H](NC(=O)C23CCC2C(c2cc(Cl)cc(Cl)c2)=NO3)CO1", "note": "(some centres unmarked) [I20]", "values": [{"measurement": "herbicidal activity against SETVI", "setting": "SETVI (Setaria viridis); 0.63 kg/ha", "result": "very good (a very good herbicidal activity is given at values of 90 to 100)"}, {"measurement": "herbicidal activity against ECHCG", "setting": "[7]", "result": "good (A good herbicidal activity is given at values of 70 to 90)"}, {"measurement": "pest or weed control at 630 g/ha", "setting": "AVEFA (Avena fatua)", "result": "90 to 100", "unit": "%"}]}, {"compound": "COC(=O)[C@H]1CC[C@H](NC(=O)C23CCC2C(c2cc(Cl)cc(Cl)c2)=NO3)C1", "note": "(some centres unmarked) [I21]", "values": [{"measurement": "herbicidal activity against POLCO", "setting": "[8]", "result": "good (A good herbicidal activity is given at values of 70 to 90)"}, {"measurement": "pest or weed control at 630 g/ha", "setting": "AVEFA (Avena fatua)", "result": "70 to 90", "unit": "%"}, {"measurement": "herbicidal activity against AMARE", "setting": "[3]; 0.63 kg/ha", "result": "very good (a very good herbicidal activity is given at values of 90 to 100)"}]}]}
